Laboratory results taken from patent publication US9718819B2 (Merck Sharp & Dohme Corp., priority 2012, dated 2017).

target: HIV-1 RT wild-type enzyme (Human immunodeficiency virus type 1 group M subtype B (isolate HXB2) (HIV-1), UniProt P04585); experiment: HIV-1 reverse transcriptase inhibitory activity (RT polymerase assay); type: biochemical; settings: HIV-1 RT wild-type enzyme 83 pM; RNA-dependent DNA polymerase activity; read-out: IC50
Method in brief: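 Biotinylated DNA primer annealed to HCV-derived RNA template (16.6 nM final hybrid), with 2 μM dATP/dGTP/dCTP and 66.6 nM Ru-dUTP, after 30 min compound–enzyme preincubation at room temperature; polymerization 90 min at 37 °C, EDTA quench. Product captured on avidin plates, electrochemiluminescence read; IC50 by four-parameter logistic fit versus DMSO and 1 μM efavirenz controls.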

In order of rising IC50:
1. N#Cc1cccc(Oc2c(C(F)(F)F)ncn(Cc3cc(-c4ccc(F)cc4)c(=O)[nH]n3)c2=O)c1F [Example 165, 2-fluoro-3-((1-((5-(4-fluorophenyl)-6-oxo-1,6-dihydropyridazin-3-yl)methyl)-6-oxo-4-(trifluoromethyl)-1,6-dihydropyrimidin-5-yl)oxy)benzonitrile]  3 nM
2. N#Cc1cc(Cl)cc(Oc2c(OC(F)F)ncn(Cc3cc(-c4ccc(F)cc4)c(=O)[nH]n3)c2=O)c1 [Example 166]  3 nM
3. Cc1ncn(Cc2cc(-c3ccc(F)cc3)c(=O)[nH]n2)c(=O)c1Oc1cc(Cl)cc(C#N)c1 [Example 169, 3-chloro-5-((1-((5-(4-fluorophenyl)-6-oxo-1,6-dihydropyridazin-3-yl)methyl)-4-methyl-6-oxo-1,6-dihydropyrimidin-5-yl)oxy)benzonitrile]  4 nM
4. Cc1c(C#N)cc(F)cc1Oc1c(C(F)(F)F)ncn(Cc2cc(-c3ccc(F)cc3)c(=O)[nH]n2)c1=O [Example 168, 5-fluoro-3-((1-((5-(4-fluorophenyl)-6-oxo-1,6-dihydropyridazin-3-yl)methyl)-6-oxo-4-(trifluoromethyl)-1,6-dihydropyrimidin-5-yl)oxy)-2-methylbenzonitrile]  5 nM
5. N#Cc1cc(Oc2c(C(F)(F)F)ncn(Cc3cc(-c4ccc(F)cc4)c(=O)[nH]n3)c2=O)cc(OC(F)F)c1 [Example 167, 3-(difluoromethoxy)-5-((1-((5-(4-fluorophenyl)-6-oxo-1,6-dihydropyridazin-3-yl)methyl)-6-oxo-4-(trifluoromethyl)-1,6-dihydropyrimidin-5-yl)oxy)benzonitrile]  6 nM
6. N#Cc1cc(Cl)cc(Oc2c(C(F)(F)F)ncn(Cc3cnc(N)[nH]c3=O)c2=O)c1 [Example 143, 3-((1-((2-amino-6-oxo-1,6-dihydropyrimidin-5-yl)methyl)-6-oxo-4-(trifluoromethyl)-1,6-dihydropyrimidin-5-yl)oxy)-5-chlorobenzonitrile]  7 nM
7. Cc1c(C#N)cc(F)cc1Oc1c(C(F)(F)F)ncn(Cc2ccc(=O)[nH]n2)c1=O [Example 164, 5-fluoro-2-methyl-3-(6-oxo-1-((6-oxo-1,6-dihydropyridazin-3-yl)methyl)-4-(trifluoromethyl)-1,6-dihydropyrimidin-5-yloxy)benzonitrile]  7 nM
8. CCc1ncc(Cn2cnc(C(F)(F)F)c(Oc3cc(Cl)cc(C#N)c3)c2=O)c(=O)[nH]1 [Example 144, 3-chloro-5-((1-((2-ethyl-6-oxo-1,6-dihydropyrimidin-5-yl)methyl)-6-oxo-4-(trifluoromethyl)-1,6-dihydropyrimidin-5-yl)oxy)benzonitrile]  9 nM
9. N#Cc1cc(Cl)cc(Oc2c(C(F)(F)F)ncn(Cc3cnc(C4CC4)[nH]c3=O)c2=O)c1 [Example 145, 3-chloro-5-((1-((2-cyclopropyl-6-oxo-1,6-dihydropyrimidin-5-yl)methyl)-6-oxo-4-(trifluoromethyl)-1,6-dihydropyrimidin-5-yl)oxy)benzonitrile]  9 nM
10. N#Cc1cc(Cl)cc(Oc2c(C(F)(F)F)ncn(Cc3cnc(-c4ccn[nH]4)[nH]c3=O)c2=O)c1 [Example 148, 3-chloro-5-((6-oxo-1-((6-oxo-2-(1H-pyrazol-5-yl)-1,6-dihydropyrimidin-5-yl)methyl)-4-(trifluoromethyl)-1,6-dihydropyrimidin-5-yl)oxy)benzonitrile]  9 nM
11. N#Cc1cc(Cl)cc(Oc2c(C(F)(F)F)ncn(Cc3cnc(-c4cccc(F)c4)[nH]c3=O)c2=O)c1 [Example 150, 3-chloro-5-((1-((2-(3-fluorophenyl)-6-oxo-1,6-dihydropyrimidin-5-yl)methyl)-6-oxo-4-(trifluoromethyl)-1,6-dihydropyrimidin-5-yl)oxy)benzonitrile]  9 nM
12. N#Cc1cc(Cl)cc(Oc2c(C(F)(F)F)ncn(Cc3cnc(-c4ccnc5[nH]ccc45)[nH]c3=O)c2=O)c1 [Example 158, 3-chloro-5-((6-oxo-1-((6-oxo-2-(1H-pyrrolo[2,3-b]pyridin-4-yl)-1,6-dihydropyrimidin-5-yl)methyl)-4-(trifluoromethyl)-1,6-dihydropyrimidin-5-yl)oxy)benzonitrile]  11 nM
13. N#Cc1cc(Cl)cc(Oc2c(C(F)(F)F)ncn(Cc3cnc(-c4ccccc4)[nH]c3=O)c2=O)c1 [Example 149, 3-chloro-5-((6-oxo-1-((6-oxo-2-phenyl-1,6-dihydropyrimidin-5-yl)methyl)-4-(trifluoromethyl)-1,6-dihydropyrimidin-5-yl)oxy)benzonitrile]  14 nM
14. N#Cc1cc(Cl)cc(Oc2c(C(F)(F)F)ncn(Cc3cnc(-c4ccccc4F)[nH]c3=O)c2=O)c1 [Example 147, 3-chloro-5-((1-((2-(2-fluorophenyl)-6-oxo-1,6-dihydropyrimidin-5-yl)methyl)-6-oxo-4-(trifluoromethyl)-1,6-dihydropyrimidin-5-yl)oxy)benzonitrile]  17 nM
15. N#Cc1cc(Cl)cc(Oc2c(C(F)(F)F)ncn(Cc3cnc(-c4ccc(OC(F)F)cc4)[nH]c3=O)c2=O)c1 [Example 159, 3-chloro-5-((1-((2-(4-(difluoromethoxy)phenyl)-6-oxo-1,6-dihydropyrimidin-5-yl)methyl)-6-oxo-4-(trifluoromethyl)-1,6-dihydropyrimidin-5-yl)oxy)benzonitrile]  17 nM
16. N#Cc1cc(Cl)cc(Oc2c(C(F)(F)F)ncn(Cc3cnc(-c4ccc(F)cc4)[nH]c3=O)c2=O)c1 [Example 146, 3-chloro-5-((1-((2-(4-fluorophenyl)-6-oxo-1,6-dihydropyrimidin-5-yl)methyl)-6-oxo-4-(trifluoromethyl)-1,6-dihydropyrimidin-5-yl)oxy)benzonitrile]  19 nM
17. N#Cc1cc(Oc2c(C(F)(F)F)ncn(Cc3ccc(=O)[nH]n3)c2=O)cc(OC(F)F)c1 [Example 163, 3-(difluoromethoxy)-5-(6-oxo-1-((6-oxo-1,6-dihydropyridazin-3-yl)methyl)-4-(trifluoromethyl)-1,6-dihydropyrimidin-5-yloxy)benzonitrile]  22 nM
18. CC(=O)c1ncc(Cn2cnc(C(F)(F)F)c(Oc3cc(Cl)cc(C#N)c3)c2=O)c(=O)[nH]1 [Example 156, 3-((1-((2-acetyl-6-oxo-1,6-dihydropyrimidin-5-yl)methyl)-6-oxo-4-(trifluoromethyl)-1,6-dihydropyrimidin-5-yl)oxy)-5-chlorobenzonitrile]  24 nM
19. N#Cc1cccc(Oc2c(C(F)(F)F)ncn(Cc3ccc(=O)[nH]n3)c2=O)c1F [Example 161, 2-fluoro-3-(6-oxo-1-((6-oxo-1,6-dihydropyridazin-3-yl)methyl)-4-(trifluoromethyl)-1,6-dihydropyrimidin-5-yloxy)benzonitrile]  24 nM
20. N#Cc1cc(Cl)cc(Oc2c(C(F)F)ncn(Cc3ccc(=O)[nH]n3)c2=O)c1 [Example 160, 3-chloro-5-((4-(difluoromethyl)-6-oxo-1-((6-oxo-1,6-dihydropyridazin-3-yl)methyl)-1,6-dihydropyrimidin-5-yl)oxy)benzonitrile]  26 nM
21. N#Cc1cc(Cl)cc(Oc2c(C(F)(F)F)ncn(Cc3cnc(-c4ccc(Cl)cc4)[nH]c3=O)c2=O)c1 [Example 151, 3-chloro-5-((1-((2-(4-chlorophenyl)-6-oxo-1,6-dihydropyrimidin-5-yl)methyl)-6-oxo-4-(trifluoromethyl)-1,6-dihydropyrimidin-5-yl)oxy)benzonitrile]  28 nM
22. N#Cc1cc(Cl)cc(Oc2c(C(F)(F)F)ncn(Cc3cnc(-c4ccc(Cl)nc4)[nH]c3=O)c2=O)c1 [Example 152, 3-chloro-5-((1-((2-(6-chloropyridin-3-yl)-6-oxo-1,6-dihydropyrimidin-5-yl)methyl)-6-oxo-4-(trifluoromethyl)-1,6-dihydropyrimidin-5-yl)oxy)benzonitrile]  32 nM
23. N#Cc1cc(Cl)cc(Oc2c(C(F)(F)F)ncn(Cc3cnc(C(F)F)[nH]c3=O)c2=O)c1 [Example 157, 3-chloro-5-((1-((2-(difluoromethyl)-6-oxo-1,6-dihydropyrimidin-5-yl)methyl)-6-oxo-4-(trifluoromethyl)-1,6-dihydropyrimidin-5-yl)oxy)benzonitrile]  32 nM
24. N#Cc1cc(Cl)cc(Oc2c(C(F)(F)F)ncn(Cc3cnc(-c4ccc(OC(F)(F)F)cc4)[nH]c3=O)c2=O)c1 [Example 153, 3-chloro-5-((6-oxo-1-((6-oxo-2-(4-(trifluoromethoxy)phenyl)-1,6-dihydropyrimidin-5-yl)methyl)-4-(trifluoromethyl)-1,6-dihydropyrimidin-5-yl)oxy)benzonitrile]  33 nM
25. N#Cc1cc(Cl)cc(Oc2c(C(F)(F)F)ncn(Cc3cnc(-n4cccn4)[nH]c3=O)c2=O)c1 [Example 142, 3-Chloro-5-[6-oxo-1-(6-oxo-2-pyrazol-1-yl-1,6-dihydro-pyrimidin-5-ylmethyl)-4-trifluoromethyl-1,6-dihydro-pyrimidin-5-yloxy]-benzonitrile]  35 nM
26. N#Cc1cc(Cl)cc(Oc2c(C(F)(F)F)ncn(Cc3cnc(C(N)=O)[nH]c3=O)c2=O)c1 [Example 154, 5-((5-(3-chloro-5-cyanophenoxy)-6-oxo-4-(trifluoromethyl)pyrimidin-1(6H)-yl)methyl)-6-oxo-1,6-dihydropyrimidine-2-carboxamide]  42 nM
27. N#Cc1cc(Cl)cc(Oc2c(OC(F)F)ncn(Cc3ccc(=O)[nH]n3)c2=O)c1 [Example 162, 3-chloro-5-(4-(difluoromethoxy)-6-oxo-1-((6-oxo-1,6-dihydropyridazin-3-yl)methyl)-1,6-dihydropyrimidin-5-yloxy)benzonitrile]  79 nM
28. N#Cc1cc(Cl)cc(Oc2c(C(F)(F)F)ncn(Cc3cnc(C#N)[nH]c3=O)c2=O)c1 [Example 155, 5-((5-(3-chloro-5-cyanophenoxy)-6-oxo-4-(trifluoromethyl)pyrimidin-1(6H)-yl)methyl)-6-oxo-1,6-dihydropyrimidine-2-carbonitrile]  94 nM
